The structures appear in SMILES notation.

What all share (type): cell-based, mouse
One assay relates to Aiolos. In words: Ex vivo compound treatment of splenocytes, western blot of Aiolos degradation (Aiolos versus GAPDH). As to the method:
(§1) For example, degradation of CRBN substrate (e.g., Aiolos, Ikaros, or GSPT1) was evaluated by ex vivo compound treatment of splenocytes isolated from the human CRBN transgenic mice. Spleens from wild type (WT), heterozygous (HET), and homozygous human CRBN knock-in mice (HOM) were collected and dissociated in 5 mL PBS using gentleMACS™ Dissociator (Miltenyi Biotec, San Diego, CA). Spleen homogenates were filtered using 70 μm pre-separation filters (#130-095-823, Miltenyi Biotec) into 15-mL conical tubes and centrifuged at 1200 rpm for 5 min. After decanting, splenocytes were re-suspended in 1 mL of ACK Lysing Buffer (Gibco #A10492-01, Thermo Fisher Scientific, Waltham, MA) for 2 min. to lyse red blood cells. Ten mL of cold PBS was added to each conical tube to stop lysis, and splenocytes were again centrifuged at 1200 rpm for 5 min. After decanting, splenocytes were re-suspended in 1 mL PBS, filtered again, and pooled for each mouse phenotype to count and determine viability using Vi-Cell™ XR cell counter (Beckman Coulter, Indianapolis, IN). After counting and viability check, tubes with pooled splenocytes were centrifuged at 1200 rpm for 5 min., decanted, and resuspended in warm RPMI 1640 media supplemented with 10% FBS at a concentration of 5.5×10^6 splenocytes/mL (20-30 mL depending on number of splenocytes).
(§2) 15×10^6 WT, HET, or HOM splenocytes were plated in wells of separate 6-well plates. Compounds diluted in DMSO (final concentration 0.2%)/RPMI 1640 media were dispensed into wells at concentrations ranging from 10 μM to 1 nM. 0.2% DMSO was also dispensed in one well of each plate as a negative control. Splenocytes were treated with compounds from 4 to 24 hrs in incubators at 37° C. Compound-treated splenocytes were then collected in 15 mL conical tubes, centrifuged at 1500 rpm for 6 mins, media aspirated off, and washed once with 5 mL PBS. After washing, splenocytes were again centrifuged, PBS was aspirated off, and splenocyte pellets were flash frozen on dry ice.
(§3) Splenocyte pellets were lysed using cold 1× cell lysis buffer (#9803, Cell Signaling Technology, Danvers, MA), supplemented with cOmplete ULTRA protease inhibitor tablet (#05892920001, Roche Diagnostics Corporation, Indianapolis, IN) and phosphatase inhibitors (Pierce #78442, Thermo Fisher Scientific, Waltham, MA). Protein concentration of lysates was determined using BCA Protein Assay Kit (Pierce #A10492-01, Thermo Fisher Scientific, Waltham, MA) and western blots were run to evaluate substrate degradation resulting from ex vivo compound treatment. Twenty microgram of each splenoctye lysate was loaded onto 4-12% Criterion XT Bis Tris gels (Bio-Rad #3450124, Bio-Rad Laboratories, Hercules, CA) and run at 130 V for 1.5 hr and then transferred onto nitrocellulose membranes using Trans-Blot Turbo Transfer System (Bio-Rad Laboratories). After 1 hr of blocking in Odyssey® Blocking buffer (#927-40100, LI-COR Biotechnology, Lincoln, NE), membranes were incubated with primary antibodies for Aiolos (polyclonal goat, #sc-18683, Santa Cruz Biotechnology, Dallas, TX), Ikaros (monoclonal rabbit, #14859, Cell Signaling Technology), GSPT-1 (polyclonal rabbit, #ab49878, Abcam PLC, Cambridge, United Kingdom), GAPDH (monoclonal mouse, #AM4300, Thermo Fisher Scientific) overnight at 4° C. After washing in PBST, membranes were probed with a fluorescent secondary antibody, Alexa Fluor 680® goat anti-rabbit IgG (Invitrogen #A-21076, Thermo Fisher Scientific) or IRDye® 800CW goat anti-mouse IgG (#926-32210, LI-COR Biotechnology), for 1 hr at room temperature. Following incubation with secondary antibodies, membranes were again washed in PBST. Membranes were scanned using Odyssey® CLx Imaging System (LI-COR Biotechnology) and quantified using Image Studio™ software.
(§4) A second ex vivo experiment using splenocytes from WT, HET, and HOM mice was conducted to study the dose dependency of Aiolos or Ikaros degradation in response to a range of Compound B concentrations. […]

The test system of another assay is Ikaros. As to the kind of experiment: Ex vivo compound treatment of splenocytes, western blot of Ikaros degradation (Ikaros versus GAPDH). On the procedure: as §1, §2, §3, §4
A general note: Immunoblotting shows a protein as a band on a membrane.

In the next assay the test system is GSPT1. In words: Ex vivo compound treatment of splenocytes, western blot of GSPT1 degradation (GSPT1 versus GAPDH). To be noted: 4 hr ex vivo. As to the method: as §1, §2
as §3, with “software. […]” for “software.”

Setting [1] is: HET and HOM splenocytes, 1 μM or 10 μM, 24 hrs ex vivo.
Where [2] appears, read: HET splenocytes, 0.001 μM, 6 hr ex vivo.
The mark [3] stands for this setting: HET splenocytes, 0.01 μM, 6 hr ex vivo.
Where [4] appears, read: HET splenocytes, 0.1 μM, 6 hr ex vivo.
Setting [5] is: HET splenocytes, 1 μM, 6 hr ex vivo.
Setting [6] is: HET splenocytes, 1 μM, 24 hr ex vivo.
[7] abbreviates: HOM splenocytes, 0.001 μM, 6 hr ex vivo.
The mark [8] stands for this setting: HOM splenocytes, 0.01 μM, 6 hr ex vivo.
Setting [9] is: HOM splenocytes, 0.1 μM, 6 hr ex vivo.
The mark [10] stands for this setting: HOM splenocytes, 1 μM, 6 hr ex vivo.
Setting [11] is: HOM splenocytes, 1 μM, 24 hr ex vivo.
Where [12] appears, read: WT splenocytes, 1 μM or 10 μM, 24 hrs ex vivo.
[13] abbreviates: WT splenocytes, 1 μM, 24 hr ex vivo.
The mark [14] stands for this setting: WT splenocytes, 10 μM, 24 hr ex vivo.
[15] abbreviates: WT splenocytes, any concentration (1, 0.1, 0.01, 0.001 μM), 6 hr ex vivo.

Turning to `O=C1CC[C@H](N2Cc3c(OCc4ccc(CN5CCOCC5)cc4)cccc3C2=O)C(=O)N1` (stereo in doubt) [Compound B, 3-(4-((4-(morpholinomethyl)benzyl)oxy)-1-oxoisoindolin-2-yl)piperidine-2,6-dione], the “degradation of Aiolos” value in the assay with Aiolos (HET (heterozygous human CRBN knock-in) splenocytes, 10 μM, 24 hr ex vivo) was 77%; with Aiolos (setting [2]) it was 0%; in the assay with Aiolos (setting [3]) it was 13%; in the assay on Aiolos (setting [4]) it was 32%; in the assay with Aiolos (setting [5]) it was 41%; in the assay with Aiolos (setting [6]) it was 76%. Also, the “degradation of Aiolos” value is reported as 84% in the assay on Aiolos (HOM (homozygous human CRBN knock-in) splenocytes, 10 μM, 24 hr ex vivo); 28% in the assay on Aiolos (setting [7]); 54% in the assay with Aiolos (setting [8]); 66% with Aiolos (setting [9]); 78% in the assay on Aiolos (setting [10]); 81% in the assay on Aiolos (setting [11]). The entries for the “degradation of Aiolos” value in the assay on Aiolos (setting [13]) and with Aiolos (setting [14]) were 28% and 27%, respectively. Besides, the “degradation of Aiolos (in words)” value in the assay with Aiolos (setting [1]) is on record as “significant degradation”; in the assay with Aiolos (setting [12]), “only minimal degradation”; in the assay on Aiolos (setting [15]), “no degradation”. The “degradation of Ikaros (in words)” value in the assay on Ikaros (setting [1]) is “significant degradation”; in the assay on Ikaros (setting [12]), “only minimal degradation”; in the assay with Ikaros (setting [15]), “no degradation”. In addition, the “degradation of Ikaros” value in the assay on Ikaros (setting [2]) is given as 0%; with Ikaros (setting [3]), 8%; in the assay on Ikaros (setting [4]), 45%; in the assay on Ikaros (setting [5]), 49%; in the assay on Ikaros (setting [6]), 60%; in the assay with Ikaros (HET splenocytes, 10 μM, 24 hr ex vivo), 68%. Further, the “degradation of Ikaros” value in the assay on Ikaros (setting [7]) amounted to 14%; in the assay on Ikaros (setting [8]), 41%; in the assay with Ikaros (setting [9]), 55%; in the assay with Ikaros (setting [10]), 59%; with Ikaros (setting [11]), 76%; in the assay on Ikaros (HOM splenocytes, 10 μM, 24 hr ex vivo), 82%. Also, the “degradation of Ikaros” value in the assay on Ikaros (setting [13]) was 23%; with Ikaros (setting [14]), 20%.
As to `Cc1ccc(NC(=O)NCc2ccc3c(c2)CN(C2CCC(=O)NC2=O)C3=O)cc1Cl` (stereo not drawn) [Compound C, 1-(3-chloro-4-methylphenyl)-3-((2-(2,6-dioxopiperidin-3-yl)-1-oxoisoindolin-5-yl)methyl)urea], the “degradation of GSPT1” value is given as 65% with GSPT1 (HOM splenocytes, 1 nM); 89% in the assay with GSPT1 (HOM splenocytes, 100 nM); 11% in the assay with GSPT1 (WT splenocytes, 1 nM); 7% in the assay on GSPT1 (WT splenocytes, 100 nM). The “degradation of GSPT1 (in words)” value with GSPT1 (HOM splenocytes) is reported as “significant degradation”; in the assay on GSPT1 (WT splenocytes) it was “only minimal degradation”.
For the compound `O=C1CCC(N2Cc3cc(CNC(=O)C(F)(F)c4ccc(F)cc4)ccc3C2=O)C(=O)N1` (stereo not drawn) [Compound E, 2-(4-flurophenyl)-N-((2-(2,6-dioxopiperidin-3-yl)-1-oxoisoindolin-5-yl)methyl)-2,2-difluoroacetamide], the “degradation of GSPT1” value is listed as 70% in the assay with GSPT1 (HOM splenocytes, 100 nM); 74% with GSPT1 (HOM splenocytes, 10 μM); 0% in the assay with GSPT1 (WT splenocytes, 100 nM); 6% with GSPT1 (WT splenocytes, 10 μM). In addition, the “degradation of GSPT1 (in words)” value with GSPT1 (HOM splenocytes) is given as “significant degradation”.

The values above are taken from patent US11963520B2, “Transgenic mouse expressing human cereblon” (Celgene Corporation, priority 2016, dated 2024).
